For one test, the target named is T1, human TLR7 (Homo sapiens, UniProt Q9NYK1).
T1 construct: host or cells: HEK-Blue TLR7 cells (engineered human embryonic kidney cells)
T1 sequence (Q9NYK1 27-1049): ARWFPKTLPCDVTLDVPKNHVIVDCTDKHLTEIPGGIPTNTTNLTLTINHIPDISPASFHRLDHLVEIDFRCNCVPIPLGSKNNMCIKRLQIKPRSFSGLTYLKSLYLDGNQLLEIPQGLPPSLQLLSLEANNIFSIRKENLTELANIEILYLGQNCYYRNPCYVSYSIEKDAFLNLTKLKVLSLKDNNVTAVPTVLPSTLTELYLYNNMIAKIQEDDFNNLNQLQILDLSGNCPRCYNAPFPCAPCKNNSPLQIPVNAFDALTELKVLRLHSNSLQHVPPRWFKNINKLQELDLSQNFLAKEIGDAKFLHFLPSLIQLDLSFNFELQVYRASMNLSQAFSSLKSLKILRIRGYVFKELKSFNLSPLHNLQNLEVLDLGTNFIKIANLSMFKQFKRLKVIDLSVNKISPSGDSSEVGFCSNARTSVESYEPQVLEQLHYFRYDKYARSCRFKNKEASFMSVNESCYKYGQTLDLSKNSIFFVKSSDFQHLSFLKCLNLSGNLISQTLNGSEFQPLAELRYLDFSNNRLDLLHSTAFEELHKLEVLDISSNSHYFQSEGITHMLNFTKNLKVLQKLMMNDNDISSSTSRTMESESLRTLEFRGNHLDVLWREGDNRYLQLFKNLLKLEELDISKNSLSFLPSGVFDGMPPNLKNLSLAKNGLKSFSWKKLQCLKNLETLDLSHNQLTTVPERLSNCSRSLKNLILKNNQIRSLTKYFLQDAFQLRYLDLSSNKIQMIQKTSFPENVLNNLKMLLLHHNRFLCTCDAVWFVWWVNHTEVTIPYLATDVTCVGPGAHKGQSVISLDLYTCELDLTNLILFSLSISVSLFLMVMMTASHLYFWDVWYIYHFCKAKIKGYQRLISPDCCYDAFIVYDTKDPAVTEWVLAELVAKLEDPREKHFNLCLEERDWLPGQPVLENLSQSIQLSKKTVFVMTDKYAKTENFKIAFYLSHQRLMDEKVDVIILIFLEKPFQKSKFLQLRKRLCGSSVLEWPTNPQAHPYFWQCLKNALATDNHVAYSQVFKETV
The experiment in a line: Human TLR7 agonist activity (hTLR7 reporter) assay in HEK-Blue TLR7 cells, SEAP readout. Format: cell-based. As to conditions: 18 h treatment, average where assay repeated. Here is the method:
This procedure describes a method for assaying human TLR7 (hTLR7) agonist activity of the compounds disclosed in this specification.
HEK-Blue™ TLR7 cells were added to each well of a 384-well tissue-culture plate (15,000 cells per well) and incubated 16-18 h at 37° C., 5% CO2. Compounds (100 nl) were dispensed into wells containing the HEK-Blue™ TLR cells and the treated cells were incubated at 37° C., 5% CO2. After 18 h treatment ten microliters of freshly-prepared Quanti-Blue™ reagent (Invivogen) was added to each well, incubated for 30 min (37° C., 5% CO2) and SEAP levels measured using an Envision plate reader (OD=620 nm). The half maximal effective concentration values (EC50; compound concentration which induced a response halfway between the assay baseline and maximum) were calculated.

Test [1] deals with CD69 in human whole blood. The experiment in a line: Induction of CD69 in human whole blood (hWB). Format: cell-based. The following applies: heparinized human whole blood, 17 h, CD69 surface staining; 100% set to 1 uM resiquimod; average where assay repeated. On the procedure: The induction of Type I interferon (IFN) MX-1 genes and the B-cell activation marker CD69 are downstream events that occur upon activation of the TLR7 pathway. The following is a human whole blood assay that measures their induction in response to a TLR7 agonist.
Heparinized human whole blood was harvested from human subjects and treated with test TLR7 agonist compounds at 1 mM. The blood was diluted with RPMI 1640 media and Echo was used to predot 10 nL per well giving a final concentration of 1 uM (10 nL in 10 uL of blood). After mixing on a shaker for 30 sec, the plates were covered and placed in a 37° C. chamber for o/n=17 hrs. Fixing/lysis buffer was prepared (5×->1×in H2O, warm at 37° C.; Cat# BD 558049) and kept the perm buffer (on ice) for later use.
For surface markers staining (CD69): prepared surface Abs: 0.045 ul hCD14-FITC (ThermoFisher Cat # MHCD1401)+0.6 ul hCD19-ef450 (ThermoFisher Cat #48-0198-42)+1.5 ul hCD69-PE (cat# BD555531)+0.855 ul FACS buffer. Added 3 ul/well, spin1000 rpm for 1 min and mixed on shaker for 30 sec, put on ice for 30 mins. Stop stimulation after 30 minutes with 70 uL of prewarmed 1×fix/lysis buffer and use Feliex mate to resuspend (15 times, change tips for each plate) and incubate at 37° C. for 10 minutes.
Centrifuge at 2000 rpm for 5 minutes aspirate with HCS plate washer, mix on shaker for 30 sec and then wash with 70 uL in dPBS and pelleted 2 xs (2000 rpm for 5 min) and 50 ul wash in FACS buffer pelleted 1 xs(2000 rpm for 5 min). Mix on shaker for 30 sec. For Intracellular markers staining (MX-1): Add 50 ul of BD Perm buffer III and mix on shaker for 30 sec. Incubate on ice for 30 minutes (in the dark). Wash with 50 uL of FACS buffer 2×(spin @2300 rpm×5 min after perm) followed by mixing on shaker for 30 sec. Resuspended in 20 ul of FACS buffer containing MX1 antibody ( )(4812)-Alexa 647: Novus Biologicals #NBP2-43704AF647) 20 ul FACS bf+0.8 ul hlgG+0.04 ul MX-1. Spin 1000 rpm for 1 min, mix on shaker for 30 se and the samples were incubated at RT in the dark for 45 minutes followed by washing 2×FACS buffer (spin @2300 rpm×5 min after perm). Resuspend 20 ul (35 uL total per well) of FACS buffer and cover with foil and place in 4° C. to read the following day. Plates were read on iQuePlus. The results were loaded into toolset and […] curves are generated in curve master. The y-axis 100% is set to 1 uM of resiquimod.

From patent publication US20230122249A1, “1H-PYRAZOLO[4,3-d]PYRIMIDINE COMPOUNDS AS TOLL-LIKE RECEPTOR 7 (TLR7) AGONISTS” (BRISTOL-MYERS SQUIBB COMPANY, priority 2020, published 2023) come the findings set out here.

For orientation: EC50 means the concentration that produces a half-maximal response. A higher EC50 goes with a need for much substance.

Consider `COc1cc(CN2CC3(C2)CN(C[C@H](C)O)C3)ccc1Cn1ncc2nc(N)nc(NCC3CC4(CC4)C3)c21` [Compound 241], for which the EC50 was determined as 72.9 nM at human TLR7 and 14 nM in test [1].
On the same counts, the results for `COc1cc(CO)ccc1Cn1ncc2nc(N)nc(NCC3CC4(CC4)C3)c21` [Compound 166, (4-((5-amino-7-((spiro[2.3]hexan-5-ylmethyl)amino)-1H-pyrazolo[4,3-d]pyrimidin-1-yl)methyl)-3-methoxyphenyl)methanol] are 261 nM and 117 nM.
On the same counts, the results for `CCC[C@@H](CCO)Nc1nc(N)nc2c(C)nn(Cc3ccc(CNC4CC5(C4)CN(C)C5)cc3OC)c12` [Compound 269] are 69.9 nM and 3.7 nM.
On the same counts, the results for `COc1cc(CN[C@H]2C[C@H](O)C2)ccc1Cn1ncc2nc(N)nc(NCC3CC4(CC4)C3)c21` [Compound 167] are 23 nM and 1.7 nM.
As to `CCCCNc1nc(N)nc2cnn(Cc3ccc(CN4CC5(CCN(CCO)C5)C4)cc3OC)c12` [Compound 261], the EC50 was found to be 120 nM at human TLR7 and 8 nM in test [1].
The like results for `COc1cc(C(=O)N2C[C@H]3C[C@@H]2CN3C)ccc1Cn1nc(C)c2nc(N)nc(NCC3CC4(CC4)C3)c21` [Compound 208] were, in that order, 119 nM and 45.8 nM.
As to `CCC[C@@H](CCO)Nc1nc(N)nc2cnn(Cc3ccc(CN4CC5(CCO5)C4)cc3OC)c12` [Compound 112], the EC50 is 1.5 nM on human TLR7 and 333 nM in test [1].
The like results for `COc1cc(CN2CC3(CCOCC3)C2)ccc1Cn1ncc2nc(N)nc(NCC3CC4(C3)CC4F)c21` (centres unmarked) [Compound 117] were, in that order, 141 nM and 122 nM.
For the molecule `CCCCNc1nc(N)nc2cnn(Cc3ccc(CN4CCC5(CC4)CN(CCO)C5)cc3OC)c12` [Compound 259], the EC50 on human TLR7 worked out at 62.5 nM; in test [1], 13.6 nM.
The like results for `COc1cc(C(=O)N2C[C@@H]3C[C@H]2CN3)ccc1Cn1ncc2nc(N)nc(NCC3CC4(CC4)C3)c21` [Compound 178] were, in that order, 365 nM and 156 nM.
The like results for `COc1cc(CN2CC3(CC(O)C3)C2)ccc1Cn1ncc2nc(N)nc(NCC3CC4(CC4)C3)c21` (centres unmarked) [Compound 146] were, in that order, 42.5 nM and 8.9 nM.
The like results for `COc1cc(C(=O)N[C@H]2C[C@H](O)C2)ccc1Cn1ncc2nc(N)nc(NCC3CC4(CC4)C3)c21` [Compound 177] were, in that order, 579 nM and 359 nM.
On to `COc1cc(CN2CCN(CCO)CC2)ccc1Cn1ncc2nc(N)nc(NCC3CC4(C3)CC(F)(F)C4)c21` [Compound 185], for which the EC50 on human TLR7 came out at 482 nM; in test [1] it was 117 nM.
With `COc1cc(C(=O)N2C[C@@H]3C[C@H]2CN3C)ccc1Cn1ncc2nc(N)nc(NCC3CC4(CC4)C3)c21` [Compound 179], the EC50 at human TLR7 turned out to be 36.5 nM; in test [1] it was 13.1 nM.
On the same counts, the results for `COc1cc(CN2CC3(C2)CN(C(C)=O)C3)ccc1Cn1ncc2nc(N)nc(NCC3CC4(CC4)C3)c21` [Compound 108] are 50.1 nM and 52.9 nM.
On the same counts, the results for `COc1cc(C(=O)NC2CCN(CC(C)(C)O)CC2)ccc1Cn1ncc2nc(N)nc(NCC3CC4(CC4)C3)c21` [Compound 238] are 86 nM and 35.2 nM.
The like results for `CCC[C@@H](CCO)Nc1nc(N)nc2cnn(Cc3ncc(C4CC5(C4)CN(C4CCOCC4)C5)cc3OC)c12` [Compound 250] were, in that order, 45.3 nM and 1.1 nM.
With `COc1cc(C(=O)N2CC3(CNC3)C2)ccc1Cn1ncc2nc(N)nc(NCC3CC4(CC4)C3)c21` [Compound 172], the EC50 on human TLR7 turned out to be 785 nM; in test [1], 300 nM.
The like results for `COc1cc(C(=O)NC2CCN(CCO)CC2)ccc1Cn1ncc2nc(N)nc(NCC3CC4(CC4)C3)c21` [Compound 225] were, in that order, 1220 nM and 218 nM.
The like results for `COc1cc(CN2CC3(C2)CN(C(C)C)C3)ccc1Cn1ncc2nc(N)nc(NCc3cc(C)on3)c21` [Compound 213] were, in that order, 53.4 nM and 2.3 nM.
Regarding `COc1cc(CN2CCN(CCO)CC2)ccc1Cn1ncc2nc(N)nc(NCC3CC4(CC4)C3)c21` [Compound 183], the figures for the half-maximal effective concentration (EC50) (at human TLR7; in test [1]) were 31.5 nM and 48.5 nM, respectively.
On the same counts, the results for `COc1cc(C(=O)NC2CCN(C3CC3)CC2)ccc1Cn1ncc2nc(N)nc(NCC3CC4(CC4)C3)c21` [Compound 195] are 193 nM and 411 nM.
The like results for `COc1cc(C(=O)N2CC3(CN(C)C3)C2)ccc1Cn1ncc2nc(N)nc(NCc3cc(C)on3)c21` [Compound 214] were, in that order, 67.6 nM and 10.9 nM.
On the same counts, the results for `CCC[C@@H](CCO)Nc1nc(N)nc2cnn(Cc3ncc(C4CCC5(CC4)CN(C4CCOCC4)C5)cc3OC)c12` [Compound 271] are 13.3 nM and 0.6 nM.
Take `COc1cc(C(=O)NC2CCN(C)CC2)ccc1Cn1ncc2nc(N)nc(NCC3CC4(CC4)C3)c21` [Compound 198]: the values for the EC50 (on human TLR7; in test [1]) were 90.3 nM and 60.6 nM, respectively.
On the same counts, the results for `CCC[C@@H](CCO)Nc1nc(N)nc2cnn(Cc3ccc(C(=O)N4CC5(CN(C)C5)C4)cc3OC)c12` [Compound 206] are 93.3 nM and 36.3 nM.
With `COc1cc(C(=O)N2CCN(C(C)=O)CC2)ccc1Cn1ncc2nc(N)nc(NCC3CC4(CC4)C3)c21` [Compound 235], the EC50 is 146 nM on human TLR7 and 223 nM in test [1].
The like results for `COc1cc(C(=O)N2CC3(CNC3)C2)ccc1Cn1ncc2nc(N)nc(NCC3CC4(CCC4)C3)c21` [Compound 180] were, in that order, 728 nM and 363 nM.
The like results for `CCCCNc1nc(N)nc2cnn(Cc3ccc(CN4CCC5(CNC5)C4)cc3OC)c12` [Compound 258] were, in that order, 147 nM and 6.5 nM.
The like results for `CCCCNc1nc(N)nc2cnn(Cc3ccc(CN4CC5(COC5)C4)cc3OC)c12` [Compound 103] were, in that order, 62.9 nM and 13.5 nM.
`COc1cc(CNC2CCOCC2)ccc1Cn1ncc2nc(N)nc(NCC3CC4(CCC4)C3)c21` [Compound 154]: the EC50 is 26.9 nM on human TLR7 and 130 nM in test [1].
